Values of other authors, collected in patent US6346530B1, “Process for the preparation of a bioavailable oral dosage form of cefuroxime axetil” (Ranbaxy Laboratories Limited, priority 1999, dated 2002).

Details: background, result in words

Compound | Bioavailability upon oral administration
CO/N=C(\C(=O)N[C@@H]1C(=O)N2C(C(=O)OC(C)OC(C)=O)=C(COC(N)=O)CS[C@H]12)c1ccco1 (some centres unmarked) [Crystalline cefuroxime axetil, cefuroxime axetil] | does not exhibit adequate bioavailability
CO/N=C(\C(=O)N[C@@H]1C(=O)N2C(C(=O)OC(C)OC(C)=O)=C(COC(N)=O)CS[C@H]12)c1ccco1 (some centres unmarked) [amorphous form of cefuroxime axetil, cefuroxime axetil] | high bioavailability
